Assay results: patent publication US10968266B2, “GIP peptide analogues” (University of Copenhagen, priority 2014, dated 2021)

Assays:
[1] = test system: perfused rat pancreata; assay: Somatostatin secretion from isolated perfused rat pancreas; conditions: 1 nM hGIP or 100 nM GIP(3-30), 7 mM glucose
Procedure: Non-fasted rats were anaesthetized with an IP injection of Hypnorm/Dormicum and the pancreas was dissected and perfused in situ. […] All other aortic branches were ligated. The venous effluent was collected for 1 min intervals via an obstructing cannula inserted into the portal vein, and stored at −20° C. until analysis. The flow rate was kept constant at 4 ml/min. The perfusion medium was continuously gassed with a 95% O2/5% CO2 mixture to achieve pH 7.4, and maintained at 37° C. during the entire experiment.
Pancreatic somatostatin concentrations in venous effluent were analysed by RIA. Somatostatin immunoreactivity was determined using antiserum 1758, which was raised in rabbits against synthetic cyclic somatostatin and recognizes both somatostatin-14 and somatostatin-28 [37, 38].

[2] = target: T1, human GIP receptor (Homo sapiens, UniProt P48546); assay: Competitive binding assay with 125I-labelled GIP radioligands, COS-7 cells transfected with human GIP receptor (Example 7)
T1 construct: host or cells: COS-7 cells, transient transfection (calcium phosphate precipitation), pCMV-Script vector
T1 sequence (P48546 22-466): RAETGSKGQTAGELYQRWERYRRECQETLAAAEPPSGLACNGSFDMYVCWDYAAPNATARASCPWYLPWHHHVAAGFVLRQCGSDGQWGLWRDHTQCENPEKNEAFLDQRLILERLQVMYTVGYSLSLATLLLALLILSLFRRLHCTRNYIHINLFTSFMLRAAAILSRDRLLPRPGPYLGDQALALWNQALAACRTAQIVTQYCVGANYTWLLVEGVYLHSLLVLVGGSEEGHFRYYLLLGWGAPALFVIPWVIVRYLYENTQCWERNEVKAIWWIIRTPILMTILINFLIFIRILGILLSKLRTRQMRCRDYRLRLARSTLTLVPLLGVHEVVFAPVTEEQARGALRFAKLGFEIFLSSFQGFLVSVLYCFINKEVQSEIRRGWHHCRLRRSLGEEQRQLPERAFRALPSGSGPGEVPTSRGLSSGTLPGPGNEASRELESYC
Procedure: Transfection of COS-7 cells was performed using the calcium phosphate precipitation method with chloroquine addition as previously described (Kissow et al., 2012). […] Nonspecific binding was determined as the binding of radioligand to untransfected cells. All determinations were made in duplicates, and all experiments repeated at least three times. The samples were analyzed for radioactivity using a Wallac Wizard 1470 Gamma Counter (GMI Inc., Minnesota, USA). The number “n” refers to individual experiments with separate transfections although from same cell line. IC50, EC50, and Kd/Ki values were determined by nonlinear regression. […] Statistical analyses (unpaired t-tests) of two parameters were also performed with GraphPad Prism 6.0. The calculations of Bmax and Ki values were based on the formula for one class of binding sites in homologous competition binding studies and the Cheng Prussoffs formula, respectively (DeBlasi et al., 1989). Kd is the dissociation constant determined by homologous receptor binding. […] Schild plots were performed with log (DR-1) (ordinate) and log(antagonist concentration) (abscissa) to estimate the slopes and Ki values (Lazareno and Birdsall, 1993).

[3] = target: T1, human GIP receptor; assay: cAMP accumulation assay (agonism, antagonism, Schild analysis), COS-7 cells transfected with human GIP receptor (Example 7); format: cell-based; conditions: for Slope of Schild plot: GIP(1-42) dose-response curves with fixed antagonist concentrations
Procedure: COS-7 cells were grown in 10% CO2 and at 37° C. in Dulbecco's modified Eagle's medium 1885 supplemented with 10% fetal bovine serum, 2 mM glutamine, 180 units/ml penicillin, and 45 µg/ml streptomycin. Transfection of COS-7 cells was performed using the calcium phosphate precipitation method with chloroquine addition as previously described (Kissow et al., 2012).
Two days after transfection the cells were washed once with HEPES buffered saline (HBS) and incubated with HBS and 0.5 mM 3-isobutyl-1-methylxanthine (IBMX) for 30 minutes at 37° C. […] After ligand incubation, the HitHunter™ cAMP XS assay (an enzyme fragment complementation-based assay, DiscoveRx, Birmingham, United Kingdom) was carried out according to the manufacturer's instructions. All experiments were made in duplicates, and repeated at least three times. Luminescence was measured by Perkin Elmer™ EnVision 2104 Multilabled reader (Skovlunde, Danmark). In brief, the cells were lysed in the wells, the enzyme fragment-cAMP-antibody, an enzyme fragment and the enzyme substrates were added followed by 1 hour incubation at room temperature on shaker tray. The other enzyme fragment was added to the wells and incubated for 4 hours on shaker tray followed by measurements of luminescence. The ligand-induced cAMP competed with the binding of antibody to the first enzyme fragment and left the two fragments to fuse. The enzyme complex hydrolyzed the substrates and yielded luminescence. The number “n” refers to individual experiments with separate transfections although from same cell line.
IC50, EC50, and Kd/Ki values were determined by nonlinear regression. These, as well as maximal binding capacity (Bmax) values and Schild plot analysis were carried out with the GraphPad Prism 6.0 software (GraphPad, San Diego, Calif., USA) and Microsoft Excel™. Statistical analyses (unpaired t-tests) of two parameters were also performed with GraphPad Prism 6.0. The calculations of Bmax and Ki values were based on the formula for one class of binding sites in homologous competition binding studies and the Cheng Prussoffs formula, respectively (DeBlasi et al., 1989). Kd is the dissociation constant determined by homologous receptor binding. […] Schild plots were performed with log (DR-1) (ordinate) and log(antagonist concentration) (abscissa) to estimate the slopes and Ki values (Lazareno and Birdsall, 1993).

[4] = inhibition of GIP(1-42) at 50-80% of max receptor activation

CC[C@H](C)[C@H](NC(=O)[C@H](CO)NC(=O)[C@H](Cc1ccc(O)cc1)NC(=O)[C@H](CC(=O)O)NC(=O)[C@H](CO)NC(=O)[C@@H](NC(=O)[C@H](Cc1ccccc1)NC(=O)[C@@H](NC(=O)CNC(=O)[C@H](CCC(=O)O)NC(=O)[C@H](C)NC(=O)[C@@H](N)Cc1ccc(O)cc1)[C@@H](C)O)[C@@H](C)CC)C(=O)N[C@@H](C)C(=O)N[C@@H](CCSC)C(=O)N[C@@H](CC(=O)O)C(=O)N[C@@H](CCCCN)C(=O)N[C@H](C(=O)N[C@@H](Cc1c[nH]cn1)C(=O)N[C@@H](CCC(N)=O)C(=O)N[C@@H](CCC(N)=O)C(=O)N[C@@H](CC(=O)O)C(=O)N[C@@H](Cc1ccccc1)C(=O)N[C@H](C(=O)N[C@@H](CC(N)=O)C(=O)N[C@@H](Cc1c[nH]c2ccccc12)C(=O)N[C@@H](CC(C)C)C(=O)N[C@@H](CC(C)C)C(=O)N[C@@H](C)C(=O)N[C@@H](CCC(N)=O)C(=O)N[C@@H](CCCCN)C(=O)NCC(=O)N[C@@H](CCCCN)C(=O)N[C@@H](CCCCN)C(=O)N[C@@H](CC(N)=O)C(=O)N[C@@H](CC(=O)O)C(=O)N[C@@H](Cc1c[nH]c2ccccc12)C(=O)N[C@@H](CCCCN)C(=O)N[C@@H](Cc1c[nH]cn1)C(=O)N[C@@H](CC(N)=O)C(=O)N[C@H](C(=O)N[C@H](C(=O)N[C@@H](CCC(N)=O)C(=O)O)[C@@H](C)O)[C@@H](C)CC)C(C)C)[C@@H](C)CC [GIP(1-42)]
Somatostatin secretion induced by the peptide alone [1]: robust somatostatin secretion

CC[C@H](C)[C@H](NC(=O)[C@H](CO)NC(=O)[C@H](Cc1ccc(O)cc1)NC(=O)[C@H](CC(=O)O)NC(=O)[C@H](CO)NC(=O)[C@@H](NC(=O)[C@H](Cc1ccccc1)NC(=O)[C@@H](N)[C@@H](C)O)[C@@H](C)CC)C(=O)N[C@@H](C)C(=O)N[C@@H](CCSC)C(=O)N[C@@H](CC(=O)O)C(=O)N[C@@H](CCCCN)C(=O)N[C@H](C(=O)N[C@@H](Cc1c[nH]cn1)C(=O)N[C@@H](CCC(N)=O)C(=O)N[C@@H](CCC(N)=O)C(=O)N[C@@H](CC(=O)O)C(=O)N[C@@H](Cc1ccccc1)C(=O)N[C@H](C(=O)N[C@@H](CC(N)=O)C(=O)N[C@@H](Cc1c[nH]c2ccccc12)C(=O)N[C@@H](CC(C)C)C(=O)N[C@@H](CC(C)C)C(=O)N[C@@H](C)C(=O)N[C@@H](CCC(N)=O)C(=O)N[C@@H](CCCCN)C(N)=O)C(C)C)[C@@H](C)CC [GIP(5-30)NH2]
Competitive binding fold (fold change of GIP(1-30)NH2 affinity) ([2]; radioligand 125I-GIP(1-42), relative to GIP(1-30)NH2): 6.6 fold
Type of antagonism (Schild analysis) [3]: pure competitive antagonists
Slope of Schild plot [3]: 1.1±0.04
IC50 [3, 4]: 11.9 nM

CC[C@H](C)[C@H](NC(=O)[C@H](CO)NC(=O)[C@H](Cc1ccc(O)cc1)NC(=O)[C@H](CC(=O)O)NC(=O)[C@H](CO)NC(=O)[C@@H](NC(=O)[C@@H](N)Cc1ccccc1)[C@@H](C)CC)C(=O)N[C@@H](C)C(=O)N[C@@H](CCSC)C(=O)N[C@@H](CC(=O)O)C(=O)N[C@@H](CCCCN)C(=O)N[C@H](C(=O)N[C@@H](Cc1c[nH]cn1)C(=O)N[C@@H](CCC(N)=O)C(=O)N[C@@H](CCC(N)=O)C(=O)N[C@@H](CC(=O)O)C(=O)N[C@@H](Cc1ccccc1)C(=O)N[C@H](C(=O)N[C@@H](CC(N)=O)C(=O)N[C@@H](Cc1c[nH]c2ccccc12)C(=O)N[C@@H](CC(C)C)C(=O)N[C@@H](CC(C)C)C(=O)N[C@@H](C)C(=O)N[C@@H](CCC(N)=O)C(=O)N[C@@H](CCCCN)C(N)=O)C(C)C)[C@@H](C)CC [GIP(6-30)NH2, reference compound]
fold change GIP(1-30)NH2 ([2]; radioligand 125I-GIP(1-30)NH2, relative to GIP(1-30)NH2): 3502 fold
IC50 ([2]; radioligand 125I-GIP(2-30)NH2): 340 nM
fold change GIP(1-30)NH2 ([2]; radioligand 125I-GIP(2-30)NH2, relative to GIP(1-30)NH2): 707 fold
IC50 ([2]; radioligand 125I-GIP(3-30)NH2): 370 nM
fold change GIP(1-30)NH2 ([2]; radioligand 125I-GIP(3-30)NH2, relative to GIP(1-30)NH2): 223 fold
Slope of Schild plot [3]: 0.38±0.13
IC50 [3, 4]: 342 nM
cAMP accumulation logIC50 ± SEM (antagonism) ([3]; inhibition of GIP(1-42) at 50-80% of max receptor activation, given with negative sign): −6.47 ± 0.6
